The experiment addresses hOT7T175 (Homo sapiens, UniProt Q969F8, L364H). Briefly: Intracellular Ca ion level-increasing activity using FLIPR in hOT7T175/CHO. It counts as cell-based. Further details: expressed in transfected cells; host or cells: CHO/dhfr- cells, obtained from ATCC. The following applies: relative, Metastin (1-54) = 1.

Numbered stars: 1 amine (or outer) side, 2 acyl side, 3 side chain; on linkers, the order of the positions; unused ones are H or OH. Square brackets hold non-standard residues; d marks the D form. Ends that are not written are not given here. Peptide text beside a SMILES is read from it. * marks the point of attachment. X12 = CNC(=N)NCCC[C@H](NC(=O)[C@H](CC(C)C)NCCN*)C(=O)N[C@@H](Cc1ccccc1)C(N)=O; X5 = NC(=O)C[C@@H](CN([C@@H](Cc1c[nH]c2ccccc12)C(=O)[*:2])[*:1])N[*:3]; X10 = NC(=O)C[C@@H](C(=O)[*:2])N(C[C@@H](N)Cc1ccc(O)cc1)[*:1]; X11 = O=C(CNC(=S)[C@H](Cc1ccccc1)N[*:1])[*:2]; Acetyl(2-(4-imidazolyl)) = O=C(Cc1c[nH]cn1)*; Phe(4-F) = N[C@@H](Cc1ccc(F)cc1)C(=O)O; Arg(Me) = CNC(=N)NCCC[C@H](N)C(=O)O; 4Pal = N[C@@H](Cc1ccncc1)C(=O)O; d3Pal = N[C@H](Cc1cccnc1)C(=O)O; d4Pal = N[C@H](Cc1ccncc1)C(=O)O; Cha = N[C@@H](CC1CCCCC1)C(=O)O; Boc = CC(C)(C)OC(=O)*; azaGly = NNC(=O)O

hOT7T175, sequence (Q969F8 whole entry L364H): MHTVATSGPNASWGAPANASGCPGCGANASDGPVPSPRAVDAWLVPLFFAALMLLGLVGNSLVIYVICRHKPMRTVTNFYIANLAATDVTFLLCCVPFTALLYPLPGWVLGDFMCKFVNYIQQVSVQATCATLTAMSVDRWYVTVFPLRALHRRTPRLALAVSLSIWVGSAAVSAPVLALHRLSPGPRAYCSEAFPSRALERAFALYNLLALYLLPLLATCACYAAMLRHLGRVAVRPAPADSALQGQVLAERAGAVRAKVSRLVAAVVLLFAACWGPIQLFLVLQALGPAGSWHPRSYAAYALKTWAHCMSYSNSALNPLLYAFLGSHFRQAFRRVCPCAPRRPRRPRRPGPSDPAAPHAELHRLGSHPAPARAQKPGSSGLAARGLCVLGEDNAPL

As for `CNC(=N)NCCC[C@H](NC(=O)[C@H](CC(C)C)NC(=O)NNC(=O)[C@H](Cc1ccccc1)NC(=O)[C@H](CO)NC(=O)[C@H](CC(N)=O)NC(=O)[C@H](CC1CCCCC1)NC(=O)[C@@H](CC(N)=O)NC(=O)[C@H](N)Cc1cccnc1)C(=O)N[C@@H](Cc1ccccc1)C(N)=O` [Compound No. 290, D-Pya(3)-D-Asn-Cha-Asn-Ser-Phe-AzaGly-Leu-Arg(Me)-Phe-NH2] (H-[d3Pal][dN][Cha]NSF[azaGly]L[Arg(Me)]F-NH2), the “Specific Activity (intracellular Ca ion level-increasing activity)” value was 1.

On to `CNC(=N)NCCC[C@H](NC(=O)[C@H](CC(C)C)NC(=O)NNC(=O)[C@H](Cc1ccccc1)NC(=O)[C@H](CO)NC(=O)[C@H](CC(N)=O)NC(=O)[C@H](CC1CCCCC1)NC(=O)[C@@H](Cc1ccc(O)cc1)NC(=O)[C@H](N)Cc1cccnc1)C(=O)N[C@@H](Cc1ccccc1)C(N)=O` [Compound No. 291, D-Pya(3)-D-Tyr-Cha-Asn-Ser-Phe-AzaGly-Leu-Arg(Me)-Phe-NH2] (H-[d3Pal][dY][Cha]NSF[azaGly]L[Arg(Me)]F-NH2; N-terminus assumed), for which the “Specific Activity (intracellular Ca ion level-increasing activity)” value is 2.

With `CC(C)C[C@H](NC(=O)CNC(=O)[C@H](Cc1ccccc1)NC(=O)[C@H](CO)NC(=O)[C@H](CC(N)=O)NC(=O)[C@H](Cc1c[nH]c2ccccc12)NC(=O)[C@H](CC(N)=O)NC[C@@H](N)Cc1ccc(O)cc1)C(=O)N[C@@H](CCCNC(=N)N)C(=O)N[C@@H](Cc1ccccc1)C(N)=O` [Compound No. 294] (H-[X10]WNSFGLRF-NH2), the “Specific Activity (intracellular Ca ion level-increasing activity)” value turned out to be 10.

As to `CC(C)C[C@H](NC(=O)CNC(=O)[C@H](Cc1ccccc1)NC(=O)[C@H](CO)NC(=O)[C@H](CC(N)=O)NC(=O)[C@H](Cc1c[nH]c2ccccc12)NC[C@H](CC(N)=O)NC(=O)[C@@H](N)Cc1ccc(O)cc1)C(=O)N[C@@H](CCCNC(=N)N)C(=O)N[C@@H](Cc1ccccc1)C(N)=O` [Compound No. 295] (H-[X5](Tyr)NSFGLRF-NH2), the “Specific Activity (intracellular Ca ion level-increasing activity)” value came to 1.

Consider `CNC(=N)NCCC[C@H](NC(=O)[C@H](CC(C)C)NC(=O)CNC(=S)[C@H](Cc1ccccc1)NC(=O)[C@H](CO)NC(=O)[C@H](CC(N)=O)NC(=O)[C@H](Cc1c[nH]c2ccccc12)NC(=O)[C@H](CC(N)=O)NC(=O)[C@H](N)Cc1ccc(O)cc1)C(=O)N[C@@H](Cc1ccccc1)C(N)=O` [Compound No. 296, D-Tyr-Asn-Trp-Asn-Ser-PheΨ(CSNH)Gly-Leu-Arg(Me)-Phe-NH2] (H-[dY]NWNS[X11]L[Arg(Me)]F-NH2), for which the “Specific Activity (intracellular Ca ion level-increasing activity)” value is reported as 3.

Consider `CNC(=N)NCCC[C@H](NC(=O)[C@H](CC(C)C)NC(=O)NNC(=O)[C@H](Cc1ccccc1)NC(=O)[C@@H](NC(=O)[C@H](CC(N)=O)NC(=O)[C@H](Cc1c[nH]c2ccccc12)NC(=O)[C@H](CC(N)=O)NC(=O)[C@H](N)Cc1ccc(O)cc1)[C@@H](C)O)C(=O)N[C@@H](Cc1ccccc1)C(N)=O` [Compound No. 297, D-Tyr-Asn-Trp-Asn-Thr-Phe-AzaGly-Leu-Arg(Me)-Phe-NH2] (H-[dY]NWNTF[azaGly]L[Arg(Me)]F-NH2; N-terminus assumed), for which the “Specific Activity (intracellular Ca ion level-increasing activity)” value is recorded as 1.

With `CNC(=N)NCCC[C@H](NC(=O)[C@H](CC(C)C)NC(=O)NNC(=O)[C@H](Cc1ccccc1)NC(=O)[C@@H](NC(=O)[C@H](CC(N)=O)NC(=O)[C@H](Cc1c[nH]c2ccccc12)NC(=O)[C@@H](CC(N)=O)NC(=O)[C@H](N)Cc1ccc(O)cc1)[C@@H](C)O)C(=O)N[C@@H](Cc1ccccc1)C(N)=O` [Compound No. 298, D-Tyr-D-Asn-Trp-Asn-Thr-Phe-AzaGly-Leu-Arg(Me)-Phe-NH2] (H-[dY][dN]WNTF[azaGly]L[Arg(Me)]F-NH2), the “Specific Activity (intracellular Ca ion level-increasing activity)” value is reported as 5.

`CNC(=N)NCCC[C@H](NC(=O)[C@H](CC(C)C)NC(=O)NNC(=O)[C@H](Cc1ccccc1)NC(=O)[C@H](CO)NC(=O)[C@H](CC(N)=O)NC(=O)[C@H](Cc1c[nH]c2ccccc12)NC(=O)[C@H](CC(N)=O)NC[C@@H](N)Cc1ccc(O)cc1)C(=O)N[C@@H](Cc1ccccc1)C(N)=O` [Compound No. 299, TyrΨ(CH2NH)Asn-Trp-Asn-Ser-Phe-AzaGly-Leu-Arg(Me)-Phe-NH2] (H-[X10]WNSF[azaGly]L[Arg(Me)]F-NH2): the “Specific Activity (intracellular Ca ion level-increasing activity)” value is given as 5.

Regarding `CNC(=N)NCCC[C@H](NC(=O)[C@H](CC(C)C)NC(=O)NNC(=O)[C@H](Cc1ccccc1)NC(=O)[C@H](CO)NC(=O)[C@H](CC(N)=O)NC(=O)[C@@H](Cc1c[nH]c2ccccc12)NC(=O)[C@H](CC(N)=O)NC[C@@H](N)Cc1ccc(O)cc1)C(=O)N[C@@H](Cc1ccccc1)C(N)=O` [Compound No. 300, TyrΨ(CH2NH)Asn-D-Trp-Asn-Ser-Phe-AzaGly-Leu-Arg(Me)-Phe-NH2] (H-[X10][dW]NSF[azaGly]L[Arg(Me)]F-NH2), the “Specific Activity (intracellular Ca ion level-increasing activity)” value is 5.

With `CNC(=N)NCCC[C@H](NC(=O)[C@H](CC(C)C)NC(=O)NNC(=O)[C@H](Cc1ccccc1)NC(=O)[C@H](CO)NC(=O)[C@H](CC(N)=O)NC(=O)[C@@H](Cc1ccncc1)NC(=O)[C@H](CC(N)=O)NC(=O)[C@H](N)Cc1ccc(O)cc1)C(=O)N[C@@H](Cc1ccccc1)C(N)=O` [Compound No. 302, D-Tyr-Asn-D-Pya(4)-Asn-Ser-Phe-AzaGly-Leu-Arg(Me)-Phe-NH2] (H-[dY]N[d4Pal]NSF[azaGly]L[Arg(Me)]F-NH2), the “Specific Activity (intracellular Ca ion level-increasing activity)” value is listed as 2.

In the case of `CNC(=N)NCCC[C@H](NC(=O)[C@H](CC(C)C)NC(=O)NNC(=O)[C@H](Cc1ccccc1)NC(=O)[C@H](CO)NC(=O)[C@H](CC(N)=O)NC(=O)[C@H](Cc1ccncc1)NC(=O)[C@@H](CC(N)=O)NC(=O)[C@@H](N)Cc1ccc(O)cc1)C(=O)N[C@@H](Cc1ccccc1)C(N)=O` [Compound No. 304, Tyr-D-Asn-Pya(4)-Asn-Ser-Phe-AzaGly-Leu-Arg(Me)-Phe-NH2] (H-Y[dN][4Pal]NSF[azaGly]L[Arg(Me)]F-NH2), the “Specific Activity (intracellular Ca ion level-increasing activity)” value was 3.

As to `CNC(=N)NCCC[C@H](NC(=O)[C@H](CC(C)C)NC(=O)NNC(=O)[C@H](Cc1ccccc1)NC(=O)[C@H](CO)NC(=O)[C@H](CC(N)=O)NC(=O)[C@H](CC1CCCCC1)NC(=O)[C@@H](CC(N)=O)NC(=O)[C@H](N)Cc1ccncc1)C(=O)N[C@@H](Cc1ccccc1)C(N)=O` [Compound No. 306, D-Pya(4)-D-Asn-Cha-Asn-Ser-Phe-AzaGly-Leu-Arg(Me)-Phe-NH2] (H-[d4Pal][dN][Cha]NSF[azaGly]L[Arg(Me)]F-NH2), the “Specific Activity (intracellular Ca ion level-increasing activity)” value turned out to be 2.

For `CNC(=N)NCCC[C@H](NC(=O)[C@H](CC(C)C)NCCNC(=O)[C@H](Cc1ccccc1)NC(=O)[C@H](CO)NC(=O)[C@H](CC(N)=O)NC(=O)[C@H](Cc1c[nH]c2ccccc12)NC(=O)[C@H](CC(N)=O)NC(=O)[C@H](N)Cc1ccc(O)cc1)C(=O)N[C@@H](Cc1ccccc1)C(N)=O` [Compound No. 307, D-Tyr-Asn-Trp-Asn-Ser-Phe-GlyΨ(CH2NH)Leu-Arg(Me)-Phe-NH2] (H-[dY]NWNSF-X12), the “Specific Activity (intracellular Ca ion level-increasing activity)” value is given as 1.

As for `CC(C)C[C@H](NC(=O)CNC(=O)[C@H](Cc1ccccc1)NC(=O)[C@H](CO)NC(=O)[C@H](CC(N)=O)NC(=O)[C@H](Cc1c[nH]c2ccccc12)NC(=O)[C@H](CC(N)=O)NC(=O)[C@@H](N)Cc1ccc(O)cc1)C(=O)N[C@@H](CCNC(=N)N)C(=O)N[C@@H](Cc1ccccc1)C(N)=O` [Compound No. 310], the “Specific Activity (intracellular Ca ion level-increasing activity)” value came out at 3.

As to `CNC(=N)NCCC[C@H](NC(=O)[C@H](CC(C)C)NC(=O)NNC(=O)[C@H](Cc1ccccc1)NC(=O)[C@H](CO)NC(=O)[C@H](CC(N)=O)NC(=O)[C@H](Cc1ccncc1)NC(=O)[C@@H](CC(N)=O)NC(=O)[C@H](N)Cc1ccc(O)cc1)C(=O)N[C@@H](Cc1ccc(F)cc1)C(N)=O` [Compound No. 317, D-Tyr-D-Asn-Pya(4)-Asn-Ser-Phe-AzaGly-Leu-Arg(Me)-Phe(4F)-NH2] (H-[dY][dN][4Pal]NSF[azaGly]L[Arg(Me)][Phe(4-F)]-NH2), the “Specific Activity (intracellular Ca ion level-increasing activity)” value was 1.

On to `CNC(=N)NCCC[C@H](NC(=O)[C@H](CC(C)C)NC(=O)NNC(=O)[C@H](Cc1ccccc1)NC(=O)[C@H](CO)NC(=O)[C@H](CC(N)=O)NC(=O)[C@H](Cc1c[nH]c2ccccc12)NC(=O)[C@H](CC(N)=O)NC(=O)[C@H](N)Cc1ccc(O)cc1)C(=O)N[C@@H](Cc1ccc(F)cc1)C(N)=O` [Compound No. 318, D-Tyr-Asn-Trp-Asn-Ser-Phe-AzaGly-Leu-Arg(Me)-Phe(4F)-NH2], for which the “Specific Activity (intracellular Ca ion level-increasing activity)” value was 5.

As to `CNC(=N)NCCC[C@H](NC(=O)[C@H](CC(C)C)NC(=O)NNC(=O)[C@H](Cc1ccccc1)NC(=O)[C@H](CO)NC(=O)[C@H](CC(N)=O)NC(=O)Cc1c[nH]cn1)C(=O)N[C@@H](Cc1ccccc1)C(N)=O` [Compound No. 323, 4-Imidazoleacetyl-Asn-Ser-Phe-AzaGly-Leu-Arg(Me)-Phe-NH2] ({Acetyl(2-(4-imidazolyl))}-NSF[azaGly]L[Arg(Me)]F-NH2), the “Specific Activity (intracellular Ca ion level-increasing activity)” value amounted to 1.

Take “Boc-Tyr-Asn-Trp-Phe-Gly-Leu-Arg-Phe-NH2 (Boc-YNWFGLRF-NH2; SMILES CC(C)C[C@H](NC(=O)CNC(=O)[C@H](Cc1ccccc1)NC(=O)[C@H](Cc1c[nH]c2ccccc12)NC(=O)[C@H](CC(N)=O)NC(=O)[C@H](Cc1ccc(O)cc1)NC(=O)OC(C)(C)C)C(=O)N[C@@H](CCCNC(=N)N)C(=O)N[C@@H](Cc1ccccc1)C(N)=O) [Compound No. 87]”: the “Specific Activity (intracellular Ca ion level-increasing activity)” value is recorded as 1.

For “D-Tyr-Asn-Trp-Asn-Ser-Phe-Ala-Leu-Arg(Me)-Phe-NH2 ([dY]NWNSFAL[Arg(Me)]F-NH2; N-terminus assumed; SMILES CNC(=N)NCCC[C@H](NC(=O)[C@H](CC(C)C)NC(=O)[C@H](C)NC(=O)[C@H](Cc1ccccc1)NC(=O)[C@H](CO)NC(=O)[C@H](CC(N)=O)NC(=O)[C@H](Cc1c[nH]c2ccccc12)NC(=O)[C@H](CC(N)=O)NC(=O)[C@H](N)Cc1ccc(O)cc1)C(=O)N[C@@H](Cc1ccccc1)C(N)=O) [Compound No. 173]”, the “Specific Activity (intracellular Ca ion level-increasing activity)” value amounted to 1.

The record behind these values is US8361968B2 (Takeda Pharmaceutical Company Limited, priority 2002, dated 2013).
